Results on 3 compounds are retold here after patent publication US11319526B2, “Methods and compositions for making antibodies and antibody derivatives with reduced core fucosylation” (Seagen Inc., priority 2008, dated 2022).

Where only a bound is given, the exact number is not on record here.

Test [1] relates to antibody core fucosylation in CHO DG44 cell line producing h1F6. As to the kind of experiment: Effect of fucose analogs on antibody core fucosylation (h1F6 from CHO DG44 culture). The test is classed as cell-based, Chinese hamster. The conditions noted are these: Cricetulus griseus, CHO-DG44, 120 h, Table 1, day 5; for inhibition at 50 µM: 50 μM fucose analog, inhibition of core fucosylation of h1F6, read-out: Inhibition at 50 μM; for inhibition at 1000 µM: 1 mM fucose analog, ND = non-core fucosylated antibody not detected due to poor antibody production or inhibition of cell growth. How it is done:
Media was supplemented with insulin like growth factor (IGF), penicillin, streptomycin and either 1 mM or 50 μM of the fucose analog (prepared as described supra). On day 5 post inoculation, the culture was centrifuged at 13000 RPM for 5 minutes to pellet cells; antibodies were then purified from supernatant.
Antibody purification was performed by applying the conditioned media to protein A resin pre-equilibrated with 1× phosphate buffered saline (PBS), pH 7.4. After washing resin with 20 resin bed volumes of 1×PBS, antibodies were eluted with 5 resin bed volumes of Immunopure IgG elution buffer (Pierce Biotechnology, Rockford, Ill.). A 10% volume of 1M tris pH 8.0 was added to neutralize the eluted fraction.

Test [2] relates to CHO DG44 cell line producing h1F6. As to the kind of experiment: Incorporation of fucose analogs into antibodies (h1F6 from CHO DG44 culture). The class given is cell-based, Chinese hamster. How it is done:
The effects of fucose analogs on antibody core fucosylation were tested at concentrations of […] and 1 mM as follows: A CHO DG44 cell line producing a humanized IgG1 anti-CD70 monoclonal antibody, h1F6 (see International Patent Publication WO 06/113909) was cultured at 7.5×10^5 cells per mL in 2 mLs of CHO culture media at 37°, 5% CO2 and shaking at 100 RPM in a 6 well tissue culture plate. Media was supplemented with insulin like growth factor (IGF), penicillin, streptomycin and either 1 mM or 50 μM of the fucose analog (prepared as described supra). On day 5 post inoculation, the culture was centrifuged at 13000 RPM for 5 minutes to pellet cells; antibodies were then purified from supernatant.
Antibody purification was performed by applying the conditioned media to protein A resin pre-equilibrated with 1× phosphate buffered saline (PBS), pH 7.4. After washing resin with 20 resin bed volumes of 1×PBS, antibodies were eluted with 5 resin bed volumes of Immunopure IgG elution buffer (Pierce Biotechnology, Rockford, Ill.). A 10% volume of 1M tris pH 8.0 was added to neutralize the eluted fraction. The amount of non-core fucosylated antibody produced was determined as described in Example 7.
Certain other fucose analogs were tested for their ability to be incorporated into antibodies. These fucose analogs were tested at concentrations of 50 μM and 1 mM using the methodology as described above and in Example 7.

In test [3] the test system is core fucosylation of h1F6 in CHO DG44 cell line. Put plainly: Capillary electrophoresis of oligosaccharides of h1F6 expressed in the presence of alkynyl fucose peracetate. The class given is cell-based, Chinese hamster. The conditions noted are these: h1F6 expressed with 50 μM alkynyl fucose peracetate; β-galactosidase treated sample (FIG. 1C). How it is done:
To determine the effect of alkynyl fucose peracetate on glycosylation of antibodies, a CHO DG44 cell line expressing a humanized IgG1 anti-CD70 monoclonal antibody, h1F6 (see International Patent Publication WO 06/113909) was cultured at 3.0×10^5 cells per mL in 30 mLs of CHO culture media at 37°, 5% CO2, by shaking at 100 RPM in 125 mL shake flasks. The CHO culture media was supplemented with insulin like growth factor (IGF), penicillin, streptomycin and either 50 or 100 μM alkynyl fucose peracetate (prepared as described in Example 1). […]
To further characterize the glycans on the h1F6 antibodies from Example 3, capillary electrophoresis was performed. […] Labeled oligosaccharides were diluted with water and analyzed by capillary electrophoresis using a Beckman Coulter PA-800 in a N-CHO coated capillary (Beckman Coulter). […] Labeled oligosaccharides were detected using laser induced fluorescence (LFI) with an excitation wavelength of 488λ. Emission fluorescence was detected at 520λ.
Samples of the antibodies were also treated with β-galactosidase to remove galactose. […] Labeled oligosaccharides were diluted with water and analyzed by capillary electrophoresis using a Beckman Coulter PA-800, in a N-CHO coated capillary (Beckman Coulter) running in 40 mM EACA, 0.2% HPMC at pH 4.5. […] Labeled oligosaccharides were detected using laser induced fluorescence (LFI) with an excitation wavelength of 488λ. […]

The test system of test [4] is CHO DG44 cell line producing h1F6. Put plainly: Non-core fucosylated antibody production in different culture media. The class given is cell-based, Chinese hamster. The conditions noted are these: 50 μM; PowerCHO versus OptiCHO media, day 5. How it is done:
To determine the effect of different culture media on non-core fucosylated antibody production, a CHO DG44 cell line producing a humanized IgG1 anti-CD70 monoclonal antibody, h1F6 (see International Patent Publication WO 06/113909), was cultured in various media. The cells (7.5×10^5 cells per mL in 2 mLs) were cultured in PowerCHO (Lonza Group Ltd., Basil, Switzerland) or OptiCHO (Invitrogen, Carlsbad, Calif.) media CHO culture media at 37°, 5% CO2 and shaking at 100 RPM in a 6 well tissue culture plate. Media was supplemented with insulin like growth factor (IGF), penicillin, streptomycin and 50 μM alkynyl fucose peracetate. On day 5 post-inoculation, the culture was centrifuged at 13000 RPM for 5 minutes to pellet cells; antibodies were then purified from supernatant.
Antibody purification was performed by applying the conditioned media to protein A resin pre-equilibrated with 1× phosphate buffered saline (PBS), pH 7.4. After washing resin with 20 resin bed volumes of 1×PBS, antibodies were eluted with 5 resin bed volumes of Immunopure IgG elution buffer (Pierce Biotechnology, Rockford, Ill.). A 10% volume of 1M tris pH 8.0 was added to neutralize the eluted fraction. Production of non-core fucosylated antibody was determined as described in Example 7. The proportion of non-core fucosylated to core fucosylated antibody produced from each media was similar.

In test [5] the test system is BALB/C mouse spleen cell and SP2/0 mouse myeloma cell fusion expressing a murine anti-Liv-1 antibody. Put plainly: Antibody core fucosylation in hybridoma, BALB/C-SP2/0 fusion. The test is classed as cell-based. The conditions noted are these: 50 μM in Hybridoma Serum Free Media. As for the experimental part:
Three antibody expressing hybridoma lines were tested to determine the effect of alkynyl fucose peracetate on antibody core fucosylation from these cell lines. These hybridomas were: 1) a BALB/C mouse spleen cell and a P2X63-AG 8.653 mouse myeloma cell fusion expressing the chimeric anti-ley antigen antibody BR96; 2) a BALB/C mouse spleen cell and a NS0 mouse myeloma cell fusion expressing a murine anti-Liv1 antibody; and 3) a BALB/C mouse spleen cell and a SP2/0mouse myeloma cell fusion expressing a murine anti-Liv-1 antibody. These hybridomas were cultured at 3.0×10^5 cells per mL in 30 mLs of Hybridoma Serum Free Media (Invitrogen, Carlsbad Calif.) supplemented with 50 μM alkynyl fucose peracetate at 37° C., 5% CO2 and shaking at 100 RPM in a 125 mL shake flask. Cultures were fed on day 3 with 2% volume of a feed media. On day four, the culture was split 1:4 into fresh culture media. Cultures were fed with a 6% volume of feed media on days 5, 7, 9 and 10. Conditioned media was collected when the viability of the culture dropped below 60% or on day 13 by passing culture through a 0.2 μm filter.
Antibody purification was performed by applying the conditioned media to a protein A column pre-equilibrated with 1× phosphate buffered saline (PBS), pH 7.4. […]

On to `CC(=O)O[C@H]([C@H](OC(C)=O)[C@H](CBr)OC(C)=O)[C@@H](C=O)OC(C)=O` [6-bromo-fucose tetraacetate, 6-bromofucose tetraacetate], for which, in test [1], the inhibition at 50 µM stood at 50% and the inhibition at 1000 µM was found to be 80%. Besides, in test [2] (50 uM), the “% Incorporation” value is approximately 50%. Also, the “% Incorporation” value in test [2] (1 mM) is listed as “(50 uM; 20% at 1 mM)”.
Take `C#CC(OC(C)=O)[C@@H](OC(C)=O)[C@@H](OC(C)=O)[C@@H](C=O)OC(C)=O` (stereo partly shown) [Alkynyl fucose peracetate, 5-ethynylarabinose tetraacetate]: in test [3], the oligosaccharide core fucosylated came out at 6% and the oligosaccharide non-core fucosylated entry is “approximately 85%”. In test [1], the inhibition at 50 µM was more than 80% and the inhibition at 1000 µM was more than 80%. Besides, the “proportion of non-core fucosylated to core fucosylated antibody produced from each media” value in test [4] was “similar”. Besides, the core fucosylation result in test [5] is reported as “inhibited”.
In the case of `C#CC[C@@H]1OC(OC(C)=O)[C@@H](OC(C)=O)[C@H](OC(C)=O)[C@@H]1OC(C)=O` (stereo partly drawn) [propargyl fucose tetraacetate, (3S,4R,5R,6S)-6-(prop-2-ynyl)-tetrahydro-2H-pyran-2,3,4,5-tetrayl tetraacetate], in test [1], the inhibition at 50 µM was approximately 10% and the inhibition at 1000 µM was 10 to 20%. Besides, in test [2] (1 mM), the “% Incorporation” value is given as 80% (1 mM).

Usually inhibition stands for the share of the control response that was lost under treatment.
